Patent US20060095978A1, “Screening assay” (priority 2002, published 2006)

Key:
Assay type in all cases: in vivo, mouse
[1] = test system: IL-1α; assay: Serum IL-1α in DO11.10 mice primed with OVA-peptide and challenged with LPS; conditions: challenged with the highest LPS dose
Method: (§1) Animals are provided as described in Example 2a).
(§2) b) Administration of OVA323-339 (=OVA-peptide) and LPS Groups of six DO11.10 mice receive i.p. 30 μg of OVA323-339 peptide (98% purity, pi Chem R&D, Graz Austria) in 0.2 ml 0.9% saline per mouse. Control mice are injected i.p. with the same amount of saline.
(§3) 18 hours later the mice are challenged i.p. with 100, 300 or 500 μg LPS (E. coli 0111: B4 Sigma Vienna, Austria). At 2, 4 and 6 hours after the LPS administration about 200 μl of blood are collected by puncture of the retro-orbital plexus under ether anesthesia. The sera are collected and stored frozen at −20° until analyzed.
(§4) Murine IL-1α, IL-1β and TNF-α serum levels are determined by ELISAs (IL-1α and TNF-α, Bender MedSystems, Vienna Austria; IL-1β, Quantikine R&D Systems, Minneapolis, Minn.). Results are expressed as pg per ml serum. Differences in the serum cytokines concentrations between the different experimental groups are examined for statistical significance by the Mann-Whitney U test, two tailed. Results are expressed as the mean±SEM. p<0.05 is regarded as significant.
The injection of OVA-peptide at doses between 3 and 90 μg per mouse increases serum concentrations of IFN-γ as well as other cytokines, such as IL-4 and IL-2, in a dose/amount-dependent way. […] The serum IL-1α levels are expressed as mean pg per ml serum±SEM.

[2] = test system: IL-2; assay: Serum IL-2 in OVA323-339 stimulated DO11.10 mice (ELISA)
Method: Groups of six, 8-10 weeks old, male or female DO11.10 mice weighing between 20-22 g are obtained as described in Murphy K. M. et al. 1990, Science 250:1720-1722. The animals are maintained in Microvent positive air supply cages (22±1° C., 55±5% relative humidity, 50-70 changes of fresh air/hour and 12 hours day and night cycle) with sawdust bedding. Standard laboratory mouse chow (SNIFF, Soest, Germany) and drinking water is given ad libidum. The animals are used for the study after an adaptation period of 10-14 days and grouped (6 per group) in type II Macrolon cages one day before the experiment.
Groups of six DO11.10 mice are i.p. injected with 10 μg of ovalbumin (OVA, Sigma, St. Louis, USA) absorbed to 2 mg of Al(OH)3 (Alu Gel S; 2% Al(OH)3, Serva, Heidelberg, FRG) and diluted with saline to a volume of 0.2 ml or various amounts (1, 3, 10, 30, or 90 μg per mouse) of alum-precipitated OVA323-339 peptide (98% purity, piChem R&D, Graz Austria) in 0.2 ml on days 0 and 14. Before and at different time points on days 0 and 14 after the OVA or OVA323-339 peptide administration about 200 μl of blood are collected by puncture of the retro-orbital plexus under ether anesthesia.
The sera are collected and stored frozen at −20° C. until analyzed.
The Neoral solution is diluted further with tap water. Doses of 20, 40, and 80 mg/kg b.w. are administered in a volume of 0.2 ml. Animals in the control group receive the solvent alone.
Murine IL-2, IFN-γ and IL-4 are analyzed by immunoassays (Quantikine R&D Systems, Minneapolis, Minn., USA). Results are expressed as pg per ml serum expressed as mean±SEM pg of the cytokine indicated per ml serum. Test and control groups are evaluated by Dunn test by Kruskall-Wallis One Way Anova using the SigmaStat® program.
Animals of the control group are injected with alum. Blood is collected before and at 2 hours after the peptide injection. IL-2 is determined in the sera by an ELISA. Results are expressed as mean pg per ml serum±SEM.
Blood is collected 2 hours later and IFN-γ, IL-4 and IL-2 levels are determined in the sera by ELISAs. Results are expressed as mean pg per ml serum±SEM.

[3] = test system: TNF-α; assay: Serum TNF-α in DO11.10 mice primed with OVA-peptide and challenged with LPS
Method: as §1, §2, §3, §4
The effects of various doses of LPS (100, 300, or 500 μg/mouse) on the production of TNF-α in the serum of non-sensitized DO11.10 mice or mice sensitized by i.p. injection of OVA-peptide (30 μg/mouse, 18 hours prior to LPS challenge) are given in TABLE 8. The TNF-α serum levels are expressed as mean pg per ml serum±SEM.

OVA323-339: peptide derived from chicken ovalbumin containing amino acids from position 323 to 339 (KISQAVHAAHAEINEAG; UniProt P01012 323-339, looked up, fragment)
effect of OVA-peptide priming on IL-1α serum levels [1]: rapid increase | IL-2 levels in pg/ml serum on day 0 after 2 hours ([2]; 3 μg OVA323-339 i.p.): 327.513 ± 76.331 pg/mL | IL-2 levels in pg/ml serum on day 0 after 2 hours ([2]; 10 μg OVA323-339 i.p.): 2866.966 ± 361.613 pg/mL | IL-2 levels in pg/ml serum on day 0 after 2 hours ([2]; 30 μg OVA323-339 i.p.): 2926.303 ± 381.536 pg/mL | IL-2 levels in pg/ml serum on day 0 after 2 hours ([2]; 90 μg OVA323-339 i.p.): 4841.034 ± 108.352 pg/mL | TNF-α in OVA-primed versus unprimed mice ([3]; 100 μg LPS, 2 hours): 9.7 fold | change in TNF-α levels, OVA-primed versus unprimed ([3]; 100 μg LPS, 4 hours): no significant changes | TNF-α in OVA-peptide primed versus unprimed mice ([3]; 300 μg LPS, 2 hours): 7.8 fold | difference in TNF-α levels, OVA-peptide primed versus unprimed ([3]; 300 μg LPS, 4 hours): no difference | TNF-α in OVA-peptide primed versus unprimed mice ([3]; 500 μg LPS, 2 hours): 5.2 fold
